Measurements reported in PMC9977398, “Next-generation membrane-active glycopeptide antibiotics that also inhibit bacterial cell division” (Chemical Science, 2023).

Columns and labels:
B. subtilis 168 = assay: Acute growth retardation / physiologically effective concentration; format: cell-based; conditions: exponentially growing B. subtilis
Text: The mechanisms of action in Gram-positive bacteria were further examined in the model bacterium B. subtilis. The study of the mechanism of action of a drug requires live cells under antibiotic stress. A 30–50% growth inhibition upon treatment, triggers a stress response in the bacterial cell while allowing cell proliferation to progress at a level sufficient to study the effect of the compound. The lowest concentration at which this effect was observed, was termed the physiologically effective concentration (PEC). […] The acute effect of different antibiotic concentrations on exponentially growing bacterial cultures were tested to identify the PEC (Fig. 3B–D). […] The presence of cationic lipophilic moieties possibly result in higher accumulation in the membrane region leading to growth inhibition at lower concentrations. […]
Determination of Physiologically Effective Concentration7
Overnight cultures of B. subtilis 168 were grown in 50 mL flasks with 10 mL of media. Upon growing to mid-log phase (an OD500 between 0.5 and 1), bacteria was inoculated in 100mL BMM in a 500 ml flask. When the cultures reach an OD500 of 0.35, the bacteria is aliquoted into separate conicals (50 mL) with 5 ml and compounds are added. The O.D. of the solutions are recorded every 30 minutes. The concentration which retards the growth of bacteria was selected as the PEC. The experiments were performed two times independently and the images are representative of results from two independent experiments. The experiment was done together with the compound published in (J. Med. Chem. 64, 2021, 10185) and therefore the graph for vancomycin is the same. […]
Overnight bacterial cultures were inoculated in BMM and allowed to grow to an OD 500 of 0.35. 200 µL of the bacterial culture were incubated with compounds at 37 ̊C for 15 minutes. […]
BAC Light assay or pore formation assay
0.35. 500 µL of the bacteria was then incubated with the compounds at their respective PECSs for 10 mins in the same media at 37 ̊C. The compound was then centrifuged at 13200 rpm and […]

MRSA = assay: Cytoplasmic membrane depolarization assay, DiSC3(5); format: cell-based, S. aureus; conditions: for time to membrane depolarisation post-treatment: exponentially growing MRSA, 10 μM; for time to dissipation of membrane potential post-treatment: stationary phase cells of MRSA, 20 μM
Text: The membrane disruption properties of both VanQbiph (4) and VanQAmC10 (8) were studied to correlate the extent of membrane perturbation and bactericidal activity against both exponentially growing and non-growing bacterial cells. Their ability to depolarize the membrane was monitored using the fluorescent probe DiSC3(5) (3,3′-dipropylthiadicarbocyanine iodide). DiSC3(5) is sensitive to the membrane potential and as it accumulates in the membrane, the fluorescence intensity decreases due to self-quenching. Upon dissipation of membrane potential, an increase in fluorescence is observed due to DiSC3(5) being dispersed in the solution. Against B. subtilis and MRSA, both the compounds VanQbiph (4) and VanQAmC10 (8) depolarised the membrane within 2 minutes post-treatment at 10 μM (Fig. 2A and B). The depolarization occurred in a concentration-dependent manner (Fig. S2A ^†). […] Against stationary phase cells of MRSA also, rapid dissipation of membrane potential was observed within 2 minutes post-treatment with both VanQbiph (4) and VanQAmC10 (8) (Fig. 2C). […]
For assessing depolarisation against stationary phase cells of MRSA ATCC 33591, cells were grown to the stationary phase for 16 h. The culture was then diluted to an OD600 of 0.2 and the depolarisation assays was performed as described. The experiments were performed three times independently in duplicates and the graph is representative of the results from all experiments.
Cytoplasmic membrane depolarization assay5
Mid log phase MRSA were harvested (3500 rpm, 5 min), washed in 5 mM glucose and 5 mM HEPES buffer (pH 7.2) in 1:1 ratio and resuspended in 5 mM HEPES buffer, 5 mM glucose and 100 mM KCl solution in 1:1:1 ratio. Then 2 μM of 3, 3′-Dipropylthiadicarbocyanine iodide (DiSC3(5)) was added to bacterial suspension and pre-incubated for 45 min. The fluorescence was monitored at excitation wavelength of 622 nm and emission wavelength of 670 nm. Then 20 μL of test compound and vancomycin were added to black well plates containing bacterial suspension and DiSC3(5) after 2-4 min of fluorescence measurement. As a measure of membrane depolarization fluorescence was monitor for another 35 min. For assessing membrane […] against stationary phase cells of MRSA ATCC 33591, cells were grown to the stationary phase for 16 h. The culture was then diluted to an OD600 of 0.2 and the depolarisation assays was performed as described. The images are representative of results from three independent experiments done in triplicates […]
Glass cover slips 24 h post -treatment with the test compounds at the mentioned con centrations, […]

CCCCCCCCCCNC(=O)C[N+](C)(C)CCCNC(=O)C1NC(=O)C2NC(=O)C(NC(=O)C3NC(=O)C(CC(N)=O)NC(=O)C(NC(=O)C(CC(C)C)NC)C(O)c4ccc(c(Cl)c4)Oc4cc3cc(c4OC3OC(CO)C(O)C(O)C3OC3CC(C)(N)C(O)C(C)O3)Oc3ccc(cc3Cl)C2O)c2ccc(O)c(c2)-c2c(O)cc(O)cc21 (centres unmarked) [VanQAmC10 (8)]
concentration showing growth retardation (inhibitory effect from) (B. subtilis 168): 0.125 µM | time to membrane depolarisation post-treatment (MRSA): ≤ 2 min | time to dissipation of membrane potential post-treatment (MRSA): ≤ 2 min

CN[C@H](CC(C)C)C(=O)N[C@H]1C(=O)N[C@@H](CC(N)=O)C(=O)N[C@H]2C(=O)N[C@H]3C(=O)N[C@H](C(=O)N[C@H](C(=O)O)c4cc(O)cc(O)c4-c4cc3ccc4O)[C@H](O)c3ccc(c(Cl)c3)Oc3cc2cc(c3O[C@@H]2O[C@H](CO)[C@@H](O)[C@H](O)[C@H]2O[C@H]2C[C@](C)(N)[C@H](O)[C@H](C)O2)Oc2ccc(cc2Cl)[C@H]1O [Vancomycin, reference compound]
concentration showing growth retardation (inhibitory effect from) (B. subtilis 168): 0.4 µM | effect on membrane potential (MRSA): did not affect the membrane potential

CNC(CC(C)C)C(=O)NC1C(=O)NC(CC(N)=O)C(=O)NC2C(=O)NC3C(=O)NC(C(=O)NC(C(=O)NCCC[N+](C)(C)Cc4ccc(-c5ccccc5)cc4)c4cc(O)cc(O)c4-c4cc3ccc4O)C(O)c3ccc(c(Cl)c3)Oc3cc2cc(c3OC2OC(CO)C(O)C(O)C2OC2CC(C)(N)C(O)C(C)O2)Oc2ccc(cc2Cl)C1O (centres unmarked) [VanQbiph (4)]
concentration showing growth retardation (inhibitory effect from) (B. subtilis 168): 0.2 µM | time to membrane depolarisation post-treatment (MRSA): ≤ 2 min | time to dissipation of membrane potential post-treatment (MRSA): ≤ 2 min
